# Experimental data as given in patent US20230085307A1, “PYRIDAZINONE COMPOUND AND HERBICIDE” (NISSAN CHEMICAL CORPORATION, priority 2019, published 2023).
# Tests used:
# barnyard grass [1] = test: Test Example 3: herbicidal effect by foliage application, Wagner pot (Table 18, symbol H); assay type: in vivo, barnyard grass (Echinochloa crus-galli)
# Outline: (§1)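 Plants were sown in alluvial soil held under 0.1–0.5 cm standing water and grown 14 days in a greenhouse at 25–30 °C. An emulsifiable formulation, water-diluted to the set dose, was then sprayed onto the foliage, and effects were scored three weeks later using previously defined criteria.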
# Chinese sprangletop = test: Test Example 3: herbicidal effect by foliage application, Wagner pot (Table 18, symbol D); assay type: in vivo, chinese sprangletop (Leptochloa chinensis)
# Outline: as §1
# rice flat sedge = test: Test Example 3: herbicidal effect by foliage application, Wagner pot (Table 18, symbol E); assay type: in vivo, rice flat sedge (Cyperus iria)
# Outline: as §1
# southern crabgrass [2] = test: Test Example 4: herbicidal effect by soil treatment (Table 19, symbol F); assay type: in vivo, southern crabgrass (Digitaria ciliaris)
# Outline: (§2)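 Soil-surface application: an emulsion agent diluted with water to the predetermined dose is sprayed uniformly over seeds lying under roughly 1.5 cm of sterilized diluvial soil. Boxes stay in a greenhouse at 25° C. to 30° C. Three weeks later, each species is graded on previously defined criteria.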
# green foxtail [3] = test: Test Example 4: herbicidal effect by soil treatment (Table 19, symbol G); assay type: in vivo, green foxtail (Setaria viridis)
# Outline: as §2
# barnyard grass [4] = test: Test Example 4: herbicidal effect by soil treatment (Table 19, symbol H); assay type: in vivo, barnyard grass (Echinochloa crus-galli)
# Outline: as §2
# wild oat [5] = test: Test Example 4: herbicidal effect by soil treatment (Table 19, symbol I); assay type: in vivo, wild oat (Avena fatua)
# Outline: as §2
# blackgrass [6] = test: Test Example 4: herbicidal effect by soil treatment (Table 19, symbol J); assay type: in vivo, blackgrass (Alopecurus myosuroides)
# Outline: as §2
# Italian ryegrass [7] = test: Test Example 4: herbicidal effect by soil treatment (Table 19, symbol K); assay type: in vivo, Italian ryegrass (Lolium multiflorum)
# Outline: as §2
# windgrass [8] = test: Test Example 4: herbicidal effect by soil treatment (Table 19, symbol L); assay type: in vivo, windgrass (Apera spica-venti)
# Outline: as §2
# velvetleaf [9] = test: Test Example 4: herbicidal effect by soil treatment (Table 19, symbol M); assay type: in vivo, velvetleaf (Abutilon theophrasti)
# Outline: as §2
# redroot pigweed [10] = test: Test Example 4: herbicidal effect by soil treatment (Table 19, symbol N); assay type: in vivo, redroot pigweed (Amaranthus retroflexus)
# Outline: as §2
# lambsquarters [11] = test: Test Example 4: herbicidal effect by soil treatment (Table 19, symbol O); assay type: in vivo, lambsquarters (Chenopodium album)
# Outline: as §2
# chickweed [12] = test: Test Example 4: herbicidal effect by soil treatment (Table 19, symbol P); assay type: in vivo, common chickweed (Stellaria media)
# Outline: as §2
# persian speedwell [13] = test: Test Example 4: herbicidal effect by soil treatment (Table 19, symbol R); assay type: in vivo, Persian speedwell (Veronica persica)
# Outline: as §2
# southern crabgrass [14] = test: Test Example 5: herbicidal effect by foliage application, plastic box (Table 20, symbol F); assay type: in vivo, southern crabgrass (Digitaria ciliaris)
# Outline: (§3)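 Sow seeds spot-wise in sterilized diluvial soil; cover with ~1.5 cm soil. Grow 14 days in greenhouse, 25° C. to 30° C. Spray foliage with emulsion diluted to predetermined amount. Rate effect after 3 weeks.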
# green foxtail [15] = test: Test Example 5: herbicidal effect by foliage application, plastic box (Table 20, symbol G); assay type: in vivo, green foxtail (Setaria viridis)
# Outline: as §3
# barnyard grass [16] = test: Test Example 5: herbicidal effect by foliage application, plastic box (Table 20, symbol H); assay type: in vivo, barnyard grass (Echinochloa crus-galli)
# Outline: as §3
# wild oat [17] = test: Test Example 5: herbicidal effect by foliage application, plastic box (Table 20, symbol I); assay type: in vivo, wild oat (Avena fatua)
# Outline: as §3
# blackgrass [18] = test: Test Example 5: herbicidal effect by foliage application, plastic box (Table 20, symbol J); assay type: in vivo, blackgrass (Alopecurus myosuroides)
# Outline: as §3
# Italian ryegrass [19] = test: Test Example 5: herbicidal effect by foliage application, plastic box (Table 20, symbol K); assay type: in vivo, Italian ryegrass (Lolium multiflorum)
# Outline: as §3
# windgrass [20] = test: Test Example 5: herbicidal effect by foliage application, plastic box (Table 20, symbol L); assay type: in vivo, windgrass (Apera spica-venti)
# Outline: as §3
# velvetleaf [21] = test: Test Example 5: herbicidal effect by foliage application, plastic box (Table 20, symbol M); assay type: in vivo, velvetleaf (Abutilon theophrasti)
# Outline: as §3
# redroot pigweed [22] = test: Test Example 5: herbicidal effect by foliage application, plastic box (Table 20, symbol N); assay type: in vivo, redroot pigweed (Amaranthus retroflexus)
# Outline: as §3
# lambsquarters [23] = test: Test Example 5: herbicidal effect by foliage application, plastic box (Table 20, symbol O); assay type: in vivo, lambsquarters (Chenopodium album)
# Outline: as §3
# chickweed [24] = test: Test Example 5: herbicidal effect by foliage application, plastic box (Table 20, symbol P); assay type: in vivo, common chickweed (Stellaria media)
# Outline: as §3
# persian speedwell [25] = test: Test Example 5: herbicidal effect by foliage application, plastic box (Table 20, symbol R); assay type: in vivo, Persian speedwell (Veronica persica)
# Outline: as §3
# [26] = amount of applied herbicide 320 g/ha
# [27] = amount of applied herbicide 320 g/ha, foliage application after 14-day growth, evaluated three weeks after application
# [28] = amount of applied herbicide 80 g/ha
# [29] = foliage application, 80 g/ha, three weeks after application
structure (smiles),measurement,setting,value
Cc1nn(C)c(=O)c(-c2c(-c3ccc(C(F)(F)F)cc3)sc3cc(F)c(F)cc23)c1O [5-007],herbicidal effect on barnyard grass (H),barnyard grass [1]; 320 g/ha,4 (Herbicidal rate of 70% or more and less than 90%)
same,herbicidal effect on Chinese sprangletop (D),Chinese sprangletop; 320 g/ha,1 (Herbicidal rate of 5% or more and less than 20%)
same,herbicidal effect on rice flat sedge (E),rice flat sedge; 320 g/ha,2 (Herbicidal rate of 20% or more and less than 40%)
same,"F: southern crabgrass, herbicidal effect grade",southern crabgrass [2]; [26],0 (Herbicidal rate of 5% or less (almost no effect))
same,"G: green foxtail, herbicidal effect grade",green foxtail [3]; [26],3 (Herbicidal rate of 40% or more and less than 70%)
same,"H: barnyard grass, herbicidal effect grade",barnyard grass [4]; [26],0 (Herbicidal rate of 5% or less (almost no effect))
same,"I: wild oat, herbicidal effect grade",wild oat [5]; [26],0 (Herbicidal rate of 5% or less (almost no effect))
same,"J: blackgrass, herbicidal effect grade",blackgrass [6]; [26],0 (Herbicidal rate of 5% or less (almost no effect))
same,"K: Italian ryegrass, herbicidal effect grade",Italian ryegrass [7]; [26],0 (Herbicidal rate of 5% or less (almost no effect))
same,"L: windgrass, herbicidal effect grade",windgrass [8]; [26],0 (Herbicidal rate of 5% or less (almost no effect))
same,"M: velvetleaf, herbicidal effect grade",velvetleaf [9]; [26],0 (Herbicidal rate of 5% or less (almost no effect))
same,"N: redroot pigweed, herbicidal effect grade",redroot pigweed [10]; [26],3 (Herbicidal rate of 40% or more and less than 70%)
same,"O: lambsquarters, herbicidal effect grade",lambsquarters [11]; [26],1 (Herbicidal rate of 5% or more and less than 20%)
same,"P: chickweed, herbicidal effect grade",chickweed [12]; [26],3 (Herbicidal rate of 40% or more and less than 70%)
same,"R: persian speedwell, herbicidal effect grade",persian speedwell [13]; [26],3 (Herbicidal rate of 40% or more and less than 70%)
same,"Herbicidal effect by foliage application, F: southern crabgrass",southern crabgrass [14]; [27],5 (Herbicidal rate of 90% or more (almost completely withered))
same,"Herbicidal effect by foliage application, G: green foxtail",green foxtail [15]; [27],4 (Herbicidal rate of 70% or more and less than 90%)
same,"Herbicidal effect by foliage application, H: barnyard grass",barnyard grass [16]; [27],3 (Herbicidal rate of 40% or more and less than 70%)
same,"Herbicidal effect by foliage application, I: wild oat",wild oat [17]; [27],2 (Herbicidal rate of 20% or more and less than 40%)
same,"Herbicidal effect by foliage application, J: blackgrass",blackgrass [18]; [27],0 (Herbicidal rate of 5% or less (almost no effect))
same,"Herbicidal effect by foliage application, K: Italian ryegrass",Italian ryegrass [19]; [27],0 (Herbicidal rate of 5% or less (almost no effect))
same,"Herbicidal effect by foliage application, L: windgrass",windgrass [20]; [27],4 (Herbicidal rate of 70% or more and less than 90%)
same,"Herbicidal effect by foliage application, M: velvetleaf",velvetleaf [21]; [27],3 (Herbicidal rate of 40% or more and less than 70%)
same,"Herbicidal effect by foliage application, N: redroot pigweed",redroot pigweed [22]; [27],5 (Herbicidal rate of 90% or more (almost completely withered))
same,"Herbicidal effect by foliage application, O: lambsquarters",lambsquarters [23]; [27],5 (Herbicidal rate of 90% or more (almost completely withered))
same,"Herbicidal effect by foliage application, P: chickweed",chickweed [24]; [27],5 (Herbicidal rate of 90% or more (almost completely withered))
same,"Herbicidal effect by foliage application, R: persian speedwell",persian speedwell [25]; [27],5 (Herbicidal rate of 90% or more (almost completely withered))
CCc1nn(C)c(=O)c(-c2c(-c3ccc(C(F)(F)F)cc3)sc3ccc(F)cc23)c1O [2-410],herbicidal effect on H: barnyard grass,barnyard grass [1]; [28],4 (Herbicidal rate of 70% or more and less than 90%)
same,herbicidal effect on D: Chinese sprangletop,Chinese sprangletop; [28],0 (Herbicidal rate of 5% or less (almost no effect))
same,herbicidal effect on E: rice flat sedge,rice flat sedge; [28],1 (Herbicidal rate of 5% or more and less than 20%)
same,"herbicidal effect, F: southern crabgrass",southern crabgrass [2]; [28],0 (Herbicidal rate of 5% or less (almost no effect))
same,"herbicidal effect, G: green foxtail",green foxtail [3]; [28],1 (Herbicidal rate of 5% or more and less than 20%)
same,"herbicidal effect, H: barnyard grass",barnyard grass [4]; [28],0 (Herbicidal rate of 5% or less (almost no effect))
same,"herbicidal effect, I: wild oat",wild oat [5]; [28],0 (Herbicidal rate of 5% or less (almost no effect))
same,"herbicidal effect, J: blackgrass",blackgrass [6]; [28],0 (Herbicidal rate of 5% or less (almost no effect))
same,"herbicidal effect, K: Italian ryegrass",Italian ryegrass [7]; [28],0 (Herbicidal rate of 5% or less (almost no effect))
same,"herbicidal effect, L: windgrass",windgrass [8]; [28],0 (Herbicidal rate of 5% or less (almost no effect))
same,"herbicidal effect, M: velvetleaf",velvetleaf [9]; [28],0 (Herbicidal rate of 5% or less (almost no effect))
same,"herbicidal effect, N: redroot pigweed",redroot pigweed [10]; [28],3 (Herbicidal rate of 40% or more and less than 70%)
same,"herbicidal effect, O: lambsquarters",lambsquarters [11]; [28],1 (Herbicidal rate of 5% or more and less than 20%)
same,"herbicidal effect, P: chickweed",chickweed [12]; [28],0 (Herbicidal rate of 5% or less (almost no effect))
same,"herbicidal effect, R: persian speedwell",persian speedwell [13]; [28],0 (Herbicidal rate of 5% or less (almost no effect))
same,"F: southern crabgrass, herbicidal effect grade",southern crabgrass [14]; [29],0 (Herbicidal rate of 5% or less (almost no effect))
same,"G: green foxtail, herbicidal effect grade",green foxtail [15]; [29],2 (Herbicidal rate of 20% or more and less than 40%)
same,"H: barnyard grass, herbicidal effect grade",barnyard grass [16]; [29],3 (Herbicidal rate of 40% or more and less than 70%)
same,"I: wild oat, herbicidal effect grade",wild oat [17]; [29],0 (Herbicidal rate of 5% or less (almost no effect))
same,"J: blackgrass, herbicidal effect grade",blackgrass [18]; [29],0 (Herbicidal rate of 5% or less (almost no effect))
same,"K: Italian ryegrass, herbicidal effect grade",Italian ryegrass [19]; [29],0 (Herbicidal rate of 5% or less (almost no effect))
same,"L: windgrass, herbicidal effect grade",windgrass [20]; [29],0 (Herbicidal rate of 5% or less (almost no effect))
same,"M: velvetleaf, herbicidal effect grade",velvetleaf [21]; [29],1 (Herbicidal rate of 5% or more and less than 20%)
same,"N: redroot pigweed, herbicidal effect grade",redroot pigweed [22]; [29],3 (Herbicidal rate of 40% or more and less than 70%)
same,"O: lambsquarters, herbicidal effect grade",lambsquarters [23]; [29],3 (Herbicidal rate of 40% or more and less than 70%)
same,"P: chickweed, herbicidal effect grade",chickweed [24]; [29],4 (Herbicidal rate of 70% or more and less than 90%)
same,"R: persian speedwell, herbicidal effect grade",persian speedwell [25]; [29],4 (Herbicidal rate of 70% or more and less than 90%)
